Source: patent US9642861B2, “Methods of treating oral mucositis” (priority 2006, dated 2017)
“And” between values parts separate entries of the source, which are not always exact repeats. Identical values can stand only once.

Test system: oral mucositis induced in hamsters by acute radiation (40 Gy to left buccal cheek pouch)
Assay: ACT-03 (Example 2): acute radiation model of oral mucositis in hamsters, mucositis scoring
Assay type: in vivo, Syrian Golden Hamsters
Parameters: key to Mucositis score / Mucositis Scores: 0: Pouch completely healthy. No erythema or vasodilation.; 1: Light to severe erythema and vasodilation. No erosion of mucosa.; 2: Severe erythema and vasodilation. Erosion of superficial aspects of mucosa leaving denuded areas. Decreased stippling of mucosa.; 3: Formation of off-white ulcers in one or more places. Ulcers may have a yellow/gray due to pseudomembrane. Cumulative size of ulcers should equal about ¼ of the pouch. Severe erythema and vasodilation.; 4: Cumulative seize of ulcers should equal about ½ of the pouch. Loss of pliability. Severe erythema and vasodilation.; 5: Virtually all of pouch is ulcerated. Loss of pliability (pouch can only partially be extracted from mouth); peak mean mucositis score: scale not given here
Details: for Mucositis Scores: first study, single animal, blinded scorer; for Mucositis score: individual animal, 2 blinded scorers
Text: The acute radiation model in hamsters, developed by the Principal Investigator, has proven to be an accurate, efficient and cost-effective technique to provide a preliminary evaluation of anti-mucositis compounds (9). The course of mucositis in this model is well defined and results in peak scores approximately 14-16 Days following radiation. The acute model has little systemic toxicity, resulting in few hamster deaths, thus permitting the use of smaller groups (N=7-8) for initial efficacy studies. It has also been used to study specific mechanistic elements in the pathogenesis of mucositis. Molecules that show efficacy in the acute radiation model may be further evaluated in the more complex models of fractionated radiation, chemotherapy, or concomitant therapy.
In this study, an acute radiation dose of 40 Gy on day 0 was administered locally to the cheek pouch. Clinically significant mucositis was observed on days 12 through 28.
Seventy-two male Syrian Golden Hamsters were divided randomly into 9 groups of 8 animals and given an acute radiation dose of 40 Gy directed to their left buccal cheek pouch. This was accomplished by anesthetizing the animals and everting the left buccal pouch, while protecting the rest of the animal with a lead shield. […] Mucositis was evaluated clinically starting on Day 6, and continued on alternate days until day 28.
The grade of mucositis was scored, beginning on day 6, and for every second day thereafter, through and including day 28 (for scoring scheme, see Table 6 and FIG. 8). The effect on mucositis of each drug treatment compared to ip vehicle-treated controls was assessed according to the following parameters:
The difference in the number of days hamsters in each group have ulcerative (score≧3) mucositis.
On each evaluation day, the number of animals with a blinded mucositis score of ≧3 in each drug treatment group was compared to the vehicle-treated control group. Differences were compared on a cumulative basis and statistical significance was determined by chi-square analysis. Efficacy, in this analysis, is defined as a significant reduction in the number of days that a group of animals had ulcerations (scores≧3) when compared to the control group.
For each evaluation day the scores of the control group were compared to those of the treated groups using non-parametric rank sum analysis. Treatment success was considered as a statistically significant lowering of scores in the treated group on 2 or more days from day 6 to day 28.
All seventy-two (72) male Syrian Golden Hamsters were given an acute radiation dose of 40 Gy directed to their left buccal cheek pouch. This was accomplished by anesthetizing the animals and everting the left buccal pouch, while protecting the rest of the animal with a lead shield. […] Mucositis was evaluated clinically starting on day 6, and continuing on alternate days until day 28. The study timeline is depicted in FIG. 7. Dose levels were determined based on the results of a previous acute toxicity study (data not published), and in the prior mucositis study of Example 1, shown in Table 5.
Mucositis was induced using a standardized acute radiation protocol. A single dose of radiation (40 Gy/dose) was administered to all animals on day 0. Radiation was generated with a 250 kilovolt potential (15-ma) source at a focal distance of 50 cm, hardened with a 0.35 mm Cu filtration system. Irradiation targeted the left buccal pouch mucosa at a rate of 3.2 Gy/minute. Prior to irradiation, animals were anesthetized with an intra-peritoneal injection of Ketamine (160 mg/kg) and Xylazine (8 mg/kg). The left buccal pouch was everted, fixed and isolated using a lead shield.
The mucositis score, weight change and survival were measured throughout the study as described above. For the evaluation of mucositis, the animals were anesthetized with isoflurane and the left pouch everted. […]

[1] = group 2: ip 30 mg/kg once daily day −1 to 3
[2] = group 2: ip 30 mg/kg qd day −1 to 3
[3] = group 3: ip 3 mg/kg bid day −1 to 3
[4] = group 4: ip 10 mg/kg bid day −1 to 3
[5] = group 4: ip 10 mg/kg twice daily day −1 to 3
[6] = group 5: ip 30 mg/kg bid day −1 to 3
[7] = group 5: ip 30 mg/kg twice daily day −1 to 3
[8] = group 6: ip 30 mg/kg once daily day 0 to 3
[9] = group 6: ip 30 mg/kg qd day 0 to 3
[10] = group 7: ip 30 mg/kg bid day 0 to 3
[11] = group 7: ip 30 mg/kg twice daily day 0 to 3
[12] = group 8: ip 30 mg/kg twice daily on day 0
[13] = group 9: ip 30 mg/kg bid day 0 & 7

SMILES: [Cl-].[Cl-].[Mn+2].c1cc2nc(c1)CN[C@@H]1CCCC[C@H]1NCCN[C@@H]1CCCC[C@H]1NC2 [M40403]
- Mucositis Scores (Group 8: 30 mg/kg/dose twice daily on day 0, day 6, 30 mg/kg): 0 (4×) and 1 (2×)
- Mucositis Scores (Group 8: 30 mg/kg/dose twice daily on day 0, day 8): 0
- Mucositis Scores (Group 8: 30 mg/kg/dose twice daily on day 0, day 10, 30 mg/kg): 0 (3×) and 1 (3×)
- Mucositis Scores (Group 8: 30 mg/kg/dose twice daily on day 0, day 12, 30 mg/kg): 2 (5×) and 1
- Mucositis Scores (Group 8: 30 mg/kg/dose twice daily on day 0, day 14, 30 mg/kg): 3 (4×) and 2 (2×)
- Mucositis Scores (Group 8: 30 mg/kg/dose twice daily on day 0, day 16, 30 mg/kg): 2 (4×) and 3 (2×)
- Mucositis Scores (Group 8: 30 mg/kg/dose twice daily on day 0, day 18, 30 mg/kg): 1 (3×) and 2 and 3 (2×)
- Mucositis Scores (Group 8: 30 mg/kg/dose twice daily on day 0, day 20, 30 mg/kg): 2 (2×) and 1 (2×) and 3 (2×)
- Mucositis Scores (Group 8: 30 mg/kg/dose twice daily on day 0, day 22): 2
- Mucositis Scores (Group 8: 30 mg/kg/dose twice daily on day 0, day 24, 30 mg/kg): 0 (3×) and 2 (2×) and 1
- Mucositis Scores (Group 8: 30 mg/kg/dose twice daily on day 0, day 26, 30 mg/kg): 1 (2×) and 0 (3×) and 2
- Mucositis Scores (Group 8: 30 mg/kg/dose twice daily on day 0, day 28, 30 mg/kg): 0 (3×) and 1 (3×)
- Mucositis Scores (Group 9: 30 mg/kg/dose twice daily on day 0 and on day 7, day 6, 30 mg/kg): 0 and 1
- Mucositis Scores (Group 9: 30 mg/kg/dose twice daily on day 0 and on day 7, day 8, 30 mg/kg): 0
- Mucositis Scores (Group 9: 30 mg/kg/dose twice daily on day 0 and on day 7, day 10, 30 mg/kg): 1 and 0
- Mucositis Scores (Group 9: 30 mg/kg/dose twice daily on day 0 and on day 7, day 12, 30 mg/kg): 2
- Mucositis Scores (Group 9: 30 mg/kg/dose twice daily on day 0 and on day 7, day 14, 30 mg/kg): 2
- Mucositis Scores (Group 9: 30 mg/kg/dose twice daily on day 0 and on day 7, day 16, 30 mg/kg): 3
- Mucositis Scores (Group 9: 30 mg/kg/dose twice daily on day 0 and on day 7, day 18, 30 mg/kg): 3
- Mucositis Scores (Group 9: 30 mg/kg/dose twice daily on day 0 and on day 7, day 20, 30 mg/kg): 2
- Mucositis Scores (Group 9: 30 mg/kg/dose twice daily on day 0 and on day 7, day 22, 30 mg/kg): 2 (2×) and 0
- Mucositis Scores (Group 9: 30 mg/kg/dose twice daily on day 0 and on day 7, day 24, 30 mg/kg): 0 and 1 (2×)
- Mucositis Scores (Group 9: 30 mg/kg/dose twice daily on day 0 and on day 7, day 26, 30 mg/kg): 2 and 1 (2×)
- Mucositis Scores (Group 9: 30 mg/kg/dose twice daily on day 0 and on day 7, day 28, 30 mg/kg): 1 and 2 and 0
- day of peak mean mucositis score [1]: 16 days
- peak mean mucositis score [1]: 2.8
- Chi Sq v control, days with mucositis score >=3 [2]: 4.4860
- Days <3 (animal days with a mucositis score below 3) [2]: 108
- Days >=3 (animal days with a mucositis score of three or more) [2]: 36
- % Days >=3 (percentage of animal days with a mucositis score of 3 or higher) (group 2: ip 30 mg/kg qd day −1 to 3, 30 mg/kg): 25%
- Chi Sq v control, days with mucositis score >=3 [3]: 5.3950
- Days <3 (animal days with a mucositis score below 3) [3]: 144
- Days >=3 (animal days with a mucositis score of three or more) [3]: 48
- % Days >=3 (percentage of animal days with a mucositis score of 3 or higher) (group 3: ip 3 mg/kg bid day −1 to 3, 3 mg/kg): 25%
- peak mean mucositis score (group 3: ip 3 mg/kg twice daily day −1 to 3): 2.9
- Chi Sq v control, days with mucositis score >=3 [4]: 1.1996
- Days <3 (animal days with a mucositis score below 3) [4]: 136
- Days >=3 (animal days with a mucositis score of three or more) [4]: 56
- % Days >=3 (percentage of animal days with a mucositis score of 3 or higher) (group 4: ip 10 mg/kg bid day −1 to 3, 10 mg/kg): 29.2% and 29.17%
- day of peak mean mucositis score [5]: 16 days
- peak mean mucositis score [5]: 3.0
- Chi Sq v control, days with mucositis score >=3 [6]: 7.229
- Days <3 (animal days with a mucositis score below 3) [6]: 112
- Days >=3 (animal days with a mucositis score of three or more) [6]: 32
- % Days >=3 (percentage of animal days with a mucositis score of 3 or higher) (group 5: ip 30 mg/kg bid day −1 to 3, 30 mg/kg): 22.2% and 22.22%
- day of peak mean mucositis score [7]: 16 days
- peak mean mucositis score [7]: 2.8
- Mucositis score (group 6, day 6): 1 and 0 (4×)
- Mucositis score (group 6, day 8): 0 (4×) and 1
- Mucositis score (group 6, day 10): 0 (4×) and 1
- Mucositis score (group 6, day 12): 2 (4×) and 0
- Mucositis score (group 6, day 14): 2 (3×) and 3 (2×)
- Mucositis score (group 6, day 16): 4 and 3 (4×)
- Mucositis score (group 6, day 18): 4 and 3 (2×) and 2 (2×)
- Mucositis score (group 6, day 20): 4 and 3 (2×) and 2 (2×)
- Mucositis score (group 6, day 22): 4 and 2 (2×) and 0 and 1
- Mucositis score (group 6, day 24): 4 and 2 (4×)
- Mucositis score (group 6, day 26): 3 and 2 (3×) and 1
- Mucositis score (group 6, day 28): 2 (2×) and 0 and 1 (2×)
- day of peak mean mucositis score [8]: 16 days
- peak mean mucositis score [8]: 3.2
- Chi Sq v control, days with mucositis score >=3 [9]: 1.029
- Days <3 (animal days with a mucositis score below 3) [9]: 100
- Days >=3 (animal days with a mucositis score of three or more) [9]: 44
- % Days >=3 (percentage of animal days with a mucositis score of 3 or higher) (group 6: ip 30 mg/kg qd day 0 to 3, 30 mg/kg): 30.6% and 30.56%
- Mucositis score (group 7, day 6): 0
- Mucositis score (group 7, day 8): 0 (2×) and 1
- Mucositis score (group 7, day 10): 1 and 0 (2×)
- Mucositis score (group 7, day 12): 2
- Mucositis score (group 7, day 14): 2
- Mucositis score (group 7, day 16): 1 (2×) and 2
- Mucositis score (group 7, day 18): 1 and 0 and 3
- Mucositis score (group 7, day 20): 1 (2×) and 0
- Mucositis score (group 7, day 22): 0 and 1 (2×) and 2
- Mucositis score (group 7, day 24): 1 (2×) and 0 (2×)
- Mucositis score (group 7, day 26): 1 (3×) and 0
- Mucositis score (group 7, day 28): 1 (3×) and 0
- Chi Sq v control, days with mucositis score >=3 [10]: 38.3440
- Days <3 (animal days with a mucositis score below 3) [10]: 174
- Days >=3 (animal days with a mucositis score of three or more) [10]: 18
- % Days >=3 (percentage of animal days with a mucositis score of 3 or higher) (group 7: ip 30 mg/kg bid day 0 to 3, 30 mg/kg): 9.4% and 9.38%
- day of peak mean mucositis score [11]: 16 days
- peak mean mucositis score [11]: 2.2
- Chi Sq v control, days with mucositis score >=3 (group 8: ip 30 mg/kg bid day 0): 25.681
- Days <3 (animal days with a mucositis score below 3) (group 8: ip 30 mg/kg bid day 0): 166
- Days >=3 (animal days with a mucositis score of three or more) (group 8: ip 30 mg/kg bid day 0): 26
- % Days >=3 (percentage of animal days with a mucositis score of 3 or higher) (group 8: ip 30 mg/kg bid day 0, 30 mg/kg): 13.5% and 13.54%
- day of peak mean mucositis score [12]: 14 days
- peak mean mucositis score [12]: 2.4
- Chi Sq v control, days with mucositis score >=3 [13]: 19.113
- Days <3 (animal days with a mucositis score below 3) [13]: 142
- Days >=3 (animal days with a mucositis score of three or more) [13]: 26
- % Days >=3 (percentage of animal days with a mucositis score of 3 or higher) (group 9: ip 30 mg/kg bid day 0 & 7, 30 mg/kg): 15.5% and 15.48%
- peak mean mucositis score (group 9: ip 30 mg/kg twice daily on day 0 and day 7): 2.4
